Measured values taken from ChEMBL document CHEMBL1131872, “3-Amidinophenylalanine-based inhibitors of urokinase” (Bioorg Med Chem Lett, 1999).

Legend:
Serine protease 1 [1] = molecular target: T1, Serine protease 1 (Bos taurus, UniProt P00760); experiment: Tested for inhibition of trypsin
T1 sequence (P00760 whole entry): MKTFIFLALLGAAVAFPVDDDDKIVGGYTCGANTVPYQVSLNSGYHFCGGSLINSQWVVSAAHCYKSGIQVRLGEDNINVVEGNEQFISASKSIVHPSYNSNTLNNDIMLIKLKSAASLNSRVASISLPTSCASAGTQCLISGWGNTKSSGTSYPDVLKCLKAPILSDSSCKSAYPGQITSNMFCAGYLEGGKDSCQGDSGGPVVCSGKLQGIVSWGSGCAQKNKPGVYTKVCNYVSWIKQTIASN

[2] = molecular target: T2, Urokinase-type plasminogen activator (Homo sapiens, UniProt P00749); experiment: Tested for inhibition of plasminogen activator urokinase (microPa)
Plasminogen [3] = molecular target: T3, Plasminogen (Homo sapiens, UniProt P00747); experiment: Tested for inhibition of plasmin
Serine protease 1 [4] = molecular target: T1, Serine protease 1; experiment: Compound was tested for inhibition of trypsin
Plasminogen [5] = molecular target: T3, Plasminogen; experiment: Compound was tested for inhibition of plasmin
Plasma kallikrein = Plasma kallikrein (Homo sapiens, UniProt P03952); experiment: Compound was tested for inhibition of plasma kallikrein
[6] = Compound was tested for inhibition of protein Ca
[7] = molecular target: T2, Urokinase-type plasminogen activator; experiment: Compound was tested for inhibition of plasminogen activator urokinase (microPa)
[8] = Compound was tested for inhibition of sc-tissue plasminogen activator
Prothrombin = Prothrombin (Homo sapiens, UniProt P00734); experiment: Compound was tested for inhibition of thrombin; set-up: species or system Bos taurus
Coagulation factor X = Coagulation factor X (Bos taurus, UniProt P00743); experiment: Compound was tested for inhibition of Coagulation factor X
[9] = molecular target: T2, Urokinase-type plasminogen activator; experiment: Compound was tested for inhibition of plasminogen activator urokinase (microPa).

T3 sequence (P00747 97-580 limits assumed): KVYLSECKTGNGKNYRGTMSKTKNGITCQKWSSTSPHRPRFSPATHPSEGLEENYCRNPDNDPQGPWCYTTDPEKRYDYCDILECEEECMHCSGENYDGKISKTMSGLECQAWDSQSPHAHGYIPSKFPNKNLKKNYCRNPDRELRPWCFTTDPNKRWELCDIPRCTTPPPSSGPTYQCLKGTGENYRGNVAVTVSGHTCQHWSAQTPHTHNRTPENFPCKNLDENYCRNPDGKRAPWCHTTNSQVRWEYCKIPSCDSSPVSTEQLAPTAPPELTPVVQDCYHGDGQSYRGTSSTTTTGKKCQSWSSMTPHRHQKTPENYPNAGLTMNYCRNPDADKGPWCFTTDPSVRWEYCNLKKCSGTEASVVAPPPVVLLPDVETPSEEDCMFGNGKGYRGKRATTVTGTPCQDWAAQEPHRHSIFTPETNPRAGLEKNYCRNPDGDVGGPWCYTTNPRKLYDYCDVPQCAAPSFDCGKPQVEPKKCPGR
T3 sequence (P00747 581-810 limits assumed): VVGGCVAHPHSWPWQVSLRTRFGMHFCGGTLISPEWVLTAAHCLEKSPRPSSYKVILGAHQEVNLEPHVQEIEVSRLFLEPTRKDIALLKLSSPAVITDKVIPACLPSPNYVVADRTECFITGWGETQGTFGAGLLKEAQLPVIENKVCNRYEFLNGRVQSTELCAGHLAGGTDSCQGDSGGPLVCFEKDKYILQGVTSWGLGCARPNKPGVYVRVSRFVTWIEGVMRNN
Sequence of Plasma kallikrein (P03952 20-390 limits assumed): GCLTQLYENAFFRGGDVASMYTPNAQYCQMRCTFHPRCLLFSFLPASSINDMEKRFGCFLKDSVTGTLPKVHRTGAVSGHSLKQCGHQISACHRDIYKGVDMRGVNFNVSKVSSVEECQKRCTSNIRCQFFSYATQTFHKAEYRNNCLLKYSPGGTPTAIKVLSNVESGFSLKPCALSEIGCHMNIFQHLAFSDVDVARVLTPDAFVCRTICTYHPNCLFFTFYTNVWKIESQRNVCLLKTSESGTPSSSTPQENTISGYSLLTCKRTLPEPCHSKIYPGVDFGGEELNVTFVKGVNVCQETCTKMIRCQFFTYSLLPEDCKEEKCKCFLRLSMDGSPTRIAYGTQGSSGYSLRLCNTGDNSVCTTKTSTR
Sequence of Plasma kallikrein (P03952 391-638 limits assumed): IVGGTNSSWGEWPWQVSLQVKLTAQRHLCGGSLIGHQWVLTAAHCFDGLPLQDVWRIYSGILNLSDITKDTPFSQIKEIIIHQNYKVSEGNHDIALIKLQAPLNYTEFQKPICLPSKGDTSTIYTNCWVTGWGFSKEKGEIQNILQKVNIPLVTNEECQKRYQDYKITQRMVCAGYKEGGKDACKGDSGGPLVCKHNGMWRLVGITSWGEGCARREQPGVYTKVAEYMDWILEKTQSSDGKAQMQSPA
Sequence of Coagulation factor X (P00743 41-180 limits assumed): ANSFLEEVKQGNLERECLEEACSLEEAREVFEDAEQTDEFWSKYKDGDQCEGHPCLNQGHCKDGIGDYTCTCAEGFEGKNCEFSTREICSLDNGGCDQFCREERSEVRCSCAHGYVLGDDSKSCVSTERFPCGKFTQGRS
Sequence of Coagulation factor X (P00743 234-492 limits assumed): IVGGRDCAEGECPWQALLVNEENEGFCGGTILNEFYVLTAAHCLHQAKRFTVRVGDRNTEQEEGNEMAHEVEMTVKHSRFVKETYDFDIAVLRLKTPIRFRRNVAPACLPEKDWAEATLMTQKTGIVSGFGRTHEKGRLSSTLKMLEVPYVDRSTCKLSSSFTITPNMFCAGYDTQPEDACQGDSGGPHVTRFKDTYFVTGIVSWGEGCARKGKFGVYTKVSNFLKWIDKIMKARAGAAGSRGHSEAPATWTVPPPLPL

| SMILES | Ki (Serine protease 1 [1]) [µM] | Ki [2] [µM] | Ki (Plasminogen [3]) [µM] | also measured |
| --- | --- | --- | --- | --- |
| CC(C)c1cc(C(C)C)c(S(=O)(=O)NC(Cc2cccc(C(=N)N)c2)C(=O)N2CCC(C(=O)O)CC2)c(C(C)C)c1 (stereo not drawn) | 6.4 | 52 | 12 | – |
| CC(C)c1cc(C(C)C)c(S(=O)(=O)NC(Cc2cccc(C(=N)N)c2)C(=O)N2CCOCC2)c(C(C)C)c1 (stereo not drawn) | 0.49 | 5.4 | 4.5 | – |
| CCOC(=O)N1CCN(C(=O)[C@H](Cc2cccc(C(=N)N)c2)NS(=O)(=O)c2c(C(C)C)cc(C(C)C)cc2C(C)C)CC1 | – | – | – | Ki (Serine protease 1 [4]): 0.037 µM; Ki (Plasminogen [5]): 0.39 µM; Ki (Plasma kallikrein): 7.2 µM; Ki [6]: 2.3 µM; Ki [7]: 0.41 µM; Ki [8]: 4.9 µM; Ki (Prothrombin): 0.49 µM; Ki (Coagulation factor X): 1.7 µM |
| N=C(N)c1cccc(CC(NS(=O)(=O)c2ccc3ccccc3c2)C(=O)N2CCOCC2)c1 (stereo not drawn) | – | 58 | 7.7 | – |
| N=C(N)c1cccc(CC(NS(=O)(=O)c2ccc3ccccc3c2)C(=O)N2CCCCCCC2)c1 (stereo not drawn) | – | 19 | 7.8 | – |
| N=C(N)c1cccc(CC(NS(=O)(=O)c2ccc3ccccc3c2)C(=O)N2CCCC2)c1 (stereo not drawn) | – | – | 12 | Ki [9]: 73 µM |
| CC(C)c1cc(C(C)C)c(S(=O)(=O)NC(Cc2cccc(C(=N)N)c2)C(=O)N2CCN(C)CC2)c(C(C)C)c1 (stereo not drawn) | 3 | 52 | 21 | – |
| CC(C)c1cc(C(C)C)c(S(=O)(=O)NC(Cc2cccc(C(=N)N)c2)C(=O)N2CCCC2)c(C(C)C)c1 (stereo not drawn) | 3.9 | 19 | 9.6 | – |
| CC(C)c1cc(C(C)C)c(S(=O)(=O)NC(Cc2cccc(C(=N)N)c2)C(=O)N2CCNCC2)c(C(C)C)c1 (stereo not drawn) | 0.98 | 12 | 7.1 | – |
| CC1CCN(C(=O)C(Cc2cccc(C(=N)N)c2)NS(=O)(=O)c2c(C(C)C)cc(C(C)C)cc2C(C)C)CC1 (stereo not drawn) | – | – | 4 | – |
| N=C(N)c1cccc(CC(NS(=O)(=O)c2ccc3ccccc3c2)C(=O)N2CCCCCC2)c1 (stereo not drawn) | 0.74 | 28 | 6.6 | – |
| CC(C)c1cc(C(C)C)c(S(=O)(=O)NC(Cc2cccc(C(=N)N)c2)C(=O)N2CCCC(C(=O)O)C2)c(C(C)C)c1 (stereo not drawn) | – | 17 | 8.2 | – |
| CC(C)c1cc(C(C)C)c(S(=O)(=O)NC(Cc2cccc(C(=N)N)c2)C(=O)N2CCN(S(C)(=O)=O)CC2)c(C(C)C)c1 (stereo not drawn) | 0.62 | 19 | 8 | – |

More lines, main results first:

| Ki (Serine protease 1 [1]) [µM] | Ki [2] [µM] | Ki (Plasminogen [3]) [µM] | SMILES | also measured |
| --- | --- | --- | --- | --- |
| 1.4 | 33 | 1 | COC(=O)C1CCCCN1C(=O)C(Cc1cccc(C(=N)N)c1)NS(=O)(=O)c1c(C(C)C)cc(C(C)C)cc1C(C)C (stereo not drawn) | – |
| 1.3 | 5.1 | 2.6 | CC(C)c1cc(C(C)C)c(S(=O)(=O)NC(Cc2cccc(C(=N)N)c2)C(=O)N2CCCCC2)c(C(C)C)c1 (stereo not drawn) | – |
| 0.5 | 1.3 | 1.5 | CC(C)c1cc(C(C)C)c(S(=O)(=O)NC(Cc2cccc(C(=N)N)c2)C(=O)N2CCCCC2C(=O)O)c(C(C)C)c1 (stereo not drawn) | – |
| 0.36 | 4.8 | 2.5 | CNC(=O)C1CCN(C(=O)C(Cc2cccc(C(=N)N)c2)NS(=O)(=O)c2c(C(C)C)cc(C(C)C)cc2C(C)C)CC1 (stereo not drawn) | – |
| – | 12 | 0.4 | CNC(=O)C1CCCN(C(=O)C(Cc2cccc(C(=N)N)c2)NS(=O)(=O)c2c(C(C)C)cc(C(C)C)cc2C(C)C)C1 (stereo not drawn) | – |
| 0.12 | 0.96 | 1.2 | CCOC(=O)N1CCN(C(=O)C(Cc2cccc(C(=N)N)c2)NS(=O)(=O)c2c(C(C)C)cc(C(C)C)cc2C(C)C)CC1 (stereo not drawn) | – |
| 0.95 | 4.4 | 2.8 | CC(C)c1cc(C(C)C)c(S(=O)(=O)NC(Cc2cccc(C(=N)N)c2)C(=O)N2CCCCCC2)c(C(C)C)c1 (stereo not drawn) | – |
| 0.83 | 7.8 | 3.2 | CC(C)c1cc(C(C)C)c(S(=O)(=O)NC(Cc2cccc(C(=N)N)c2)C(=O)N2CCCCCCC2)c(C(C)C)c1 (stereo not drawn) | – |
| – | 1.3 | 1.4 | COC(=O)C1CCN(C(=O)C(Cc2cccc(C(=N)N)c2)NS(=O)(=O)c2c(C(C)C)cc(C(C)C)cc2C(C)C)CC1 (stereo not drawn) | – |
| 0.11 | – | 1.8 | COC(=O)N1CCN(C(=O)C(Cc2cccc(C(=N)N)c2)NS(=O)(=O)c2c(C(C)C)cc(C(C)C)cc2C(C)C)CC1 (stereo not drawn) | – |
| 0.36 | 2.5 | 1 | COC(=O)C1CCCN(C(=O)C(Cc2cccc(C(=N)N)c2)NS(=O)(=O)c2c(C(C)C)cc(C(C)C)cc2C(C)C)C1 (stereo not drawn) | – |
